Laboratory results as given in BindingDB's records for doi:10.1021/acschembio.6b00560 (Vanderbilt Institute of Chemical Biology, Vanderbilt …, 2016).
pIC50: −log10 of the molar value.

Key:
[1] = biological target: T1, Prostaglandin G/H synthase 1 (Ovis aries, UniProt P05979); experiment: COX Enzyme Inhibition Assay (Table 1)
T1 sequence (P05979 whole entry): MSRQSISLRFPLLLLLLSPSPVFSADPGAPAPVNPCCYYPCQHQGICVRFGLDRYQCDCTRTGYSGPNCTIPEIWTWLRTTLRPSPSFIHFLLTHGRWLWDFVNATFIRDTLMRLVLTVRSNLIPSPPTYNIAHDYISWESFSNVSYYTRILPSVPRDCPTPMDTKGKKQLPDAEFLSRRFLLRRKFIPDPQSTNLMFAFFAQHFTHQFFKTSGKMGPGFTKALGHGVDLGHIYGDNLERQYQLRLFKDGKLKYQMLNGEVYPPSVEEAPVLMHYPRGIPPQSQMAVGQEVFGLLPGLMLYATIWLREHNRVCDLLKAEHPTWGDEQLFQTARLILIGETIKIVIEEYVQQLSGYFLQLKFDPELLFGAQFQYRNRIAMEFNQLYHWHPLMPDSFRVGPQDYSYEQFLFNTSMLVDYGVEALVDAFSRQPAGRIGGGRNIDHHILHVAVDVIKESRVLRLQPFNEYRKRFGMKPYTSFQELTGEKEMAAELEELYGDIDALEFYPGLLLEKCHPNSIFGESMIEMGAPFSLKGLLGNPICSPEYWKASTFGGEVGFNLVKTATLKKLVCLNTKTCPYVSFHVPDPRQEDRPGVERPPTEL

[2] = biological target: T2, Prostaglandin G/H synthase 2 (Mus musculus, UniProt Q05769); experiment: COX Enzyme Inhibition Assay (Table 1)
T2 sequence (Q05769 whole entry): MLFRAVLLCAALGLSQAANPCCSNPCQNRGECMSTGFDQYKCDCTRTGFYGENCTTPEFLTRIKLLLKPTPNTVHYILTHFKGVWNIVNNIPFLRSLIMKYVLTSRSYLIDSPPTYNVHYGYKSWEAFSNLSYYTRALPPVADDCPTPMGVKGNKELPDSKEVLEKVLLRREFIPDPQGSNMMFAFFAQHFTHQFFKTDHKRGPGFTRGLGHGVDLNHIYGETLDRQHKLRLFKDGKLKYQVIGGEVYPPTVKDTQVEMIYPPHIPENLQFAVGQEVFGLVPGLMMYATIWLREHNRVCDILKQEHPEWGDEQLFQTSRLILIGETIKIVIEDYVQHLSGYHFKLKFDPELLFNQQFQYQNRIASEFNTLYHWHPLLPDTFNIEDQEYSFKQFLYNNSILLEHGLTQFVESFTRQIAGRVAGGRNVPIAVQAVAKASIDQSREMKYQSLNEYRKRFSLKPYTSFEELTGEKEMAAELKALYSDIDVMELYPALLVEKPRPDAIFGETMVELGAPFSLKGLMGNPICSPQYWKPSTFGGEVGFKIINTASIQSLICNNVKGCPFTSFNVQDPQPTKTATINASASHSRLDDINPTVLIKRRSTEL

Row | SMILES | pIC50 [1] | pIC50 [2]
1 | CCC1(O)C(=O)OCc2c1cc1n(c2=O)Cc2cc3cc(OC(=O)CCC(=O)OCCNC(=O)Cc4c(C)n(C(=O)c5ccc(Cl)cc5)c5ccc(OC)cc45)ccc3nc2-1 (stereo unspecified) [Cytotoxic conjugates, 10] | < 4.60 | < 4.60
2 | COc1cc([C@@H]2c3cc4c(cc3[C@H](O)[C@H]3COC(=O)[C@H]23)OCO4)cc(OC)c1OC [podophyllotoxin] | < 4.60 | < 4.60
3 | COc1ccc2c(c1)c(CC(=O)NCCOC(=O)\C=C(C)/C=C/C=C(C)/C=C/C1=C(C)CCCC1(C)C)c(C)n2C(=O)c1ccc(Cl)cc1 [Cytotoxic conjugates, 5] | < 4.60 | –
4 | COc1ccc2c(c1)c(CC(=O)NCc1ccc(CNC(=O)CCC(=O)O[C@@H]3c4cc5c(cc4[C@H](c4cc(OC)c(OC)c(OC)c4)[C@@H]4C(=O)OCC34)OCO5)cc1)c(C)n2C(=O)c1ccc(Cl)cc1 (stereo partly specified) [Cytotoxic conjugates, 15] | < 4.60 | –
5 | COc1ccc2c(c1)c(CCNC(=O)CCC(=O)Nc1ccc(S(=O)(=O)Nc3nccs3)cc1)c(C)n2Cc1ccc(Br)cc1 [Cytotoxic conjugates, 9] | < 4.60 | < 4.60
6 | COc1ccc2c(c1)c(CC(=O)NCCNC(=O)CCC(=O)O[C@@H]1c3cc4c(cc3[C@H](c3cc(OC)c(OC)c(OC)c3)[C@@H]3C(=O)OCC13)OCO4)c(C)n2C(=O)c1ccc(Cl)cc1 (stereo partly specified) [Cytotoxic conjugates, 11] | < 4.60 | 6.33
7 | COc1ccc2c(c1)c(CC(=O)NCCCCNC(=O)CCC(=O)OC1CCCCC1)c(C)n2C(=O)c1ccc(Cl)cc1 [Cytotoxic conjugates, 16] | < 4.60 | –
8 | COc1ccc2c(c1)c(CC(=O)NCCNC(=O)/C=C(C)/C=C/C=C(C)/C=C/C1=C(C)CCCC1(C)C)c(C)n2C(=O)c1ccc(Cl)cc1 [Cytotoxic conjugates, 6] | < 4.60 | 7.00
9 | COc1ccc2c(c1)c(CC(=O)NCCCCOC(=O)CCC(=O)O[C@@H]1c3cc4c(cc3[C@H](c3cc(OC)c(OC)c(OC)c3)[C@@H]3C(=O)OCC13)OCO4)c(C)n2C(=O)c1ccc(Cl)cc1 (stereo partly specified) [Cytotoxic conjugates, 14] | < 4.60 | –
10 | COc1ccc2c(c1)c(CC(=O)NCCNC(=O)/C=C(C)/C=C/C=C(C)\C=C\C1=C(C)CCCC1(C)C)c(C)n2C(=O)c1ccc(Cl)cc1 [Cytotoxic conjugates, 7] | < 4.60 | 6.22
11 | COc1ccc2c(c1)c(CC(=O)NCCNC(=O)CCC(=O)Nc1ccc(S(=O)(=O)Nc3nccs3)cc1)c(C)n2C(=O)c1ccc(Cl)cc1 [Cytotoxic conjugates, 8] | < 4.60 | –
12 | COc1ccc2c(c1)c(CC(=O)O[C@@H](C(=O)O[C@H]1C[C@@]3(O)[C@@H](OC(=O)c4ccccc4)[C@@H]4[C@]5(OC(C)=O)CO[C@@H]5C[C@H](O)[C@@]4(C)C(=O)[C@H](OC(C)=O)C(=C1C)C3(C)C)[C@@H](NC(=O)c1ccccc1)c1ccccc1)c(C)n2C(=O)c1ccc(Cl)cc1 [Cytotoxic conjugates, 1] | < 4.60 | < 4.60
13 | COc1ccc2c(c1)c(CC(=O)NCCCCOC(=O)CCC(=O)O[C@@H](C(=O)O[C@H]1C[C@@]3(O)[C@@H](OC(=O)c4ccccc4)[C@@H]4[C@]5(OC(C)=O)CO[C@@H]5C[C@H](O)[C@@]4(C)C(=O)[C@H](OC(C)=O)C(=C1C)C3(C)C)[C@@H](NC(=O)c1ccccc1)c1ccccc1)c(C)n2C(=O)c1ccc(Cl)cc1 [Cytotoxic conjugates, 3] | < 4.60 | –
14 | COc1ccc2c(c1)c(CC(=O)Nc1ccc(CNC(=O)CCC(=O)O[C@@H](C(=O)O[C@H]3C[C@@]4(O)[C@@H](OC(=O)c5ccccc5)[C@@H]5[C@]6(OC(C)=O)CO[C@@H]6C[C@H](O)[C@@]5(C)C(=O)[C@H](OC(C)=O)C(=C3C)C4(C)C)[C@@H](NC(=O)c3ccccc3)c3ccccc3)cc1)c(C)n2C(=O)c1ccc(Cl)cc1 [Cytotoxic conjugates, 4] | < 4.60 | –
